ChEMBL document CHEMBL1149774, “Synthesis of N-(5,7-diamino-3-phenyl-quinoxalin-2-yl)-3,4,5-substituted anilines and N-[4[(5,7-diamino-3-phenylquinoxalin-2-yl)amino]benzoyl]-l-glutamic acid diethyl ester: evaluation of in vitro anti-cancer and anti-folate activities” (Eur J Med Chem, 2008)

Tests used:
Type in all cases: functional
DU-145 = experiment: Growth inhibition of human DU145 cells after 48 hrs by SRB staining method; settings: DU-145, 48 h
786-0 = experiment: Growth inhibition of human 786-0 cells after 48 hrs by SRB staining method; settings: 786-0, 48 h
HCT-15 = experiment: Growth inhibition of human HCT15 cells after 48 hrs by SRB staining method; settings: HCT-15, 48 h
SF-295 = experiment: Growth inhibition of human SF295 cells after 48 hrs by SRB staining method; settings: SF-295, 48 h
SK-MEL-28 = experiment: Growth inhibition of human SK-MEL-28 cells after 48 hrs by SRB staining method; settings: SK-MEL-28, 48 h
T47D = experiment: Growth inhibition of human T47D cells after 48 hrs by SRB staining method
TK-10 = experiment: Growth inhibition of human TK10 cells after 48 hrs by SRB staining method; settings: TK-10, 48 h
M14 = experiment: Growth inhibition of human M14 cells after 48 hrs by SRB staining method; settings: M14, 48 h
UACC-257 = experiment: Growth inhibition of human UACC257 cells after 48 hrs by SRB staining method; settings: UACC-257, 48 h
COLO 205 = experiment: Growth inhibition of human COLO205 cells after 48 hrs by SRB staining method; settings: COLO 205, 48 h
HCT-116 = experiment: Growth inhibition of human HCT116 cells after 48 hrs by SRB staining method; settings: HCT-116, 48 h
OVCAR-4 = experiment: Growth inhibition of human OVCAR4 cells after 48 hrs by SRB staining method; settings: OVCAR-4, 48 h
MCF7 = experiment: Growth inhibition of human MCF7 cells after 48 hrs by SRB staining method; settings: MCF7, 48 h
HL-60 = experiment: Growth inhibition of human HL60 cells after 48 hrs by SRB staining method; settings: HL-60, 48 h
NCI-H522 = experiment: Growth inhibition of human NCI-H522 cells after 48 hrs by SRB staining method; settings: NCI-H522, 48 h
Malme-3M = experiment: Growth inhibition of human MALME-3M cells after 48 hrs by SRB staining method
RXF 393 = experiment: Growth inhibition of human RXF393 cells after 48 hrs by SRB staining method; settings: RXF 393, 48 h
SK-MEL-5 = experiment: Growth inhibition of human SK-MEL-5 cells after 48 hrs by SRB staining method; settings: SK-MEL-5, 48 h
CAKI-1 = experiment: Growth inhibition of human CAKI1 cells after 48 hrs by SRB staining method; settings: CAKI-1, 48 h
MDA-MB-435 = experiment: Growth inhibition of human MDA-MB-435 cells after 48 hrs by SRB staining method; settings: MDA-MB-435, 48 h
NCI-H226 = experiment: Growth inhibition of human NCI-H226 cells after 48 hrs by SRB staining method; settings: NCI-H226, 48 h
OVCAR-3 = experiment: Growth inhibition of human OVCAR-3 cells after 48 hrs by SRB staining method; settings: OVCAR-3, 48 h
U-251 = experiment: Growth inhibition of human U251 cells after 48 hrs by SRB staining method; settings: U-251, 48 h
OVCAR-5 = experiment: Growth inhibition of human OVCAR5 cells after 48 hrs by SRB staining method; settings: OVCAR-5, 48 h
NCI-H322M = experiment: Growth inhibition of human NCI-H322M cells after 48 hrs by SRB staining method
SK-OV-3 = experiment: Growth inhibition of human SKOV3 cells after 48 hrs by SRB staining method; settings: SK-OV-3, 48 h
SW-620 = experiment: Growth inhibition of human SW620 cells after 48 hrs by SRB staining method; settings: SW-620, 48 h
HOP-62 = experiment: Growth inhibition of human HOP62 cells after 48 hrs by SRB staining method; settings: HOP-62, 48 h
SR = experiment: Growth inhibition of human SR cells after 48 hrs by SRB staining method
EKVX = experiment: Growth inhibition of human EKVX cells after 48 hrs by SRB staining method
NCI-H460 = experiment: Growth inhibition of human NCI-H460 cells after 48 hrs by SRB staining method; settings: NCI-H460, 48 h
UO-31 = experiment: Growth inhibition of human UO31 cells after 48 hrs by SRB staining method; settings: UO-31, 48 h
A498 = experiment: Growth inhibition of human A498 cells after 48 hrs by SRB staining method; settings: A498, 48 h
[1] = read-out: pLC50 (the source's name) (converted)

SMILES: Nc1cc(N)c2nc(-c3ccccc3)c(Nc3ccc(Cl)c(Cl)c3)nc2c1
- GI50 (DU-145): 16.6 µM
- CC50 (DU-145; [1]): 63.1 µM
- TGI (DU-145; read-out: pTGI (converted)): 32.4 µM
- GI50 (786-0): 14.8 µM
- CC50 (786-0; [1]): 93.3 µM
- TGI (786-0; read-out: pTGI (converted)): 37.2 µM
- GI50 (HCT-15): 21.4 µM
- LC50 (HCT-15): > 100 µM
- TGI (HCT-15; read-out: pTGI (converted)): > 100 µM
- GI50 (SF-295): 12.3 µM
- LC50 (SF-295): 63.1 µM
- TGI (SF-295; read-out: pTGI (converted)): 28.2 µM
- GI50 (SK-MEL-28): 16.2 µM
- CC50 (SK-MEL-28; [1]): > 100 µM
- TGI (SK-MEL-28; read-out: pTGI (converted)): 44.7 µM
- GI50 (T47D): 11.5 µM
- CC50 (T47D; [1]): 83.2 µM
- TGI (T47D; read-out: pTGI (converted)): 30.9 µM
- GI50 (TK-10): 13.8 µM
- CC50 (TK-10; [1]): 66.1 µM
- TGI (TK-10; read-out: pTGI (converted)): 30.2 µM
- GI50 (M14): 14.8 µM
- LC50 (M14): > 100 µM
- TGI (M14; read-out: pTGI (converted)): 60.3 µM
- GI50 (UACC-257): 11.5 µM
- LC50 (UACC-257): 69.2 µM
- TGI (UACC-257; read-out: pTGI (converted)): 28.2 µM
- GI50 (COLO 205): 11.7 µM
- LC50 (COLO 205): 85.1 µM
- TGI (COLO 205; read-out: pTGI (converted)): 31.6 µM
- GI50 (HCT-116): 10.7 µM
- LC50 (HCT-116): > 100 µM
- TGI (HCT-116; read-out: pTGI (converted)): 52.5 µM
- GI50 (OVCAR-4): 11.2 µM
- LC50 (OVCAR-4): > 100 µM
- TGI (OVCAR-4; read-out: pTGI (converted)): 47.9 µM
- GI50 (MCF7): 5.01 µM
- CC50 (MCF7; [1]): 75.9 µM
- TGI (MCF7; read-out: pTGI (converted)): 20.9 µM
- GI50 (HL-60): 2.57 µM
- CC50 (HL-60; [1]): > 100 µM
- TGI (HL-60; read-out: pTGI (converted)): 72.4 µM
- GI50 (NCI-H522): 5.25 µM
- LC50 (NCI-H522): 69.2 µM
- TGI (NCI-H522; read-out: pTGI (converted)): 21.9 µM
- GI50 (Malme-3M): 10.2 µM
- LC50 (Malme-3M): 57.5 µM
- TGI (Malme-3M; read-out: pTGI (converted)): 24.5 µM
- GI50 (RXF 393): 6.17 µM
- CC50 (RXF 393; [1]): > 100 µM
- TGI (RXF 393; read-out: pTGI (converted)): 30.9 µM
- GI50 (SK-MEL-5): 11 µM
- LC50 (SK-MEL-5): 58.9 µM
- TGI (SK-MEL-5; read-out: pTGI (converted)): 25.7 µM
- GI50 (CAKI-1): 13.5 µM
- CC50 (CAKI-1; [1]): 64.6 µM
- TGI (CAKI-1; read-out: pTGI (converted)): 29.5 µM
- GI50 (MDA-MB-435): 2.14 µM
- CC50 (MDA-MB-435; [1]): 9.77 µM
- TGI (MDA-MB-435; read-out: pTGI (converted)): 45.7 µM
- GI50 (NCI-H226): 17.4 µM
- LC50 (NCI-H226): 81.3 µM
- TGI (NCI-H226; read-out: pTGI (converted)): 38 µM
- GI50 (OVCAR-3): 2.95 µM
- LC50 (OVCAR-3): 37.2 µM
- TGI (OVCAR-3; read-out: pTGI (converted)): 10 µM
- GI50 (U-251): 4.68 µM
- LC50 (50% lethal concentration) (U-251): > 100 µM
- TGI (U-251; read-out: pTGI (converted)): > 100 µM
- GI50 (OVCAR-5): 28.2 µM
- LC50 (OVCAR-5): 85.1 µM
- TGI (OVCAR-5; read-out: pTGI (converted)): 49 µM
- LC50 (NCI-H322M): 63.1 µM
- GI50 (SK-OV-3): 13.8 µM
- CC50 (SK-OV-3; [1]): 70.8 µM
- TGI (SK-OV-3; read-out: pTGI (converted)): 31.6 µM
- GI50 (SW-620): 13.2 µM
- CC50 (SW-620; [1]): > 100 µM
- TGI (SW-620; read-out: pTGI (converted)): 51.3 µM
- GI50 (HOP-62): 17.4 µM
- LC50 (HOP-62): 81.3 µM
- TGI (HOP-62; read-out: pTGI (converted)): 38 µM
- GI50 (SR): 2.57 µM
- CC50 (SR; [1]): > 100 µM
- TGI (SR; read-out: pTGI (converted)): 15.5 µM
- GI50 (EKVX): 3.8 µM
- CC50 (EKVX; [1]): 47.9 µM
- TGI (EKVX; read-out: pTGI (converted)): 16.2 µM
- GI50 (NCI-H460): 1.58 µM
- LC50 (concentration killing 50% of cells) (NCI-H460): 56.2 µM
- TGI (NCI-H460; read-out: pTGI (converted)): 22.9 µM
- GI50 (UO-31): 11.2 µM
- CC50 (UO-31; [1]): > 100 µM
- TGI (UO-31; read-out: pTGI (converted)): 36.3 µM
- GI50 (A498): 12 µM
- CC50 (A498; [1]): 57.5 µM
- TGI (A498; read-out: pTGI (converted)): 26.3 µM
